Test results: US20250353853A1, “FLAVIVIRUS INHIBITORS” (IRBM S.P.A., priority 2022, published 2025)
Counter-ions that a name gives are not always drawn.

Tested on: ZIKV replicon in Vero cells
Assay: ZIKV Replication Inhibition Assay (replicon, NanoLuc)
Conditions: Zika virus, Vero, 72 h, read-out: Zika Replicon EC50

| Compound | EC50 |
| --- | --- |
| COc1ncc(-c2ccc(C[n+]3cc([N-]C(=O)Nc4ccccc4)on3)cc2)c(C)n1 [Example 115, (3-(4-(2-methoxy-4-methylpyrimidin-5-yl)benzyl)-1,2,3-oxadiazol-3-ium-5-yl)(phenylcarbamoyl)amide] | 1000 to 20000 nM |
| Cc1nn(C)c(C)c1-c1ccc(C[n+]2cc([N-]C(=O)Nc3cccc(C(F)(F)F)c3)on2)cc1 [Example 97] | < 100 nM |
| O=C([N-]c1c[n+](Cc2csc(-c3cncnc3)c2)no1)Nc1cccc(C(F)(F)F)c1 [Example 100, (3-((5-(pyrimidin-5-yl)thiophen-3-yl)methyl)-1,2,3-oxadiazol-3-ium-5-yl)((3-(trifluoromethyl)phenyl)carbamoyl)amide] | 100 to 1000 nM |
| O=C([N-]c1c[n+](Cc2ccc(-c3c(F)nc[nH]c3=O)cc2)no1)Nc1cccc(C(F)(F)F)c1 [Example 107, (3-(4-(4-fluoro-6-oxo-1,6-dihydropyrimidin-5-yl)benzyl)-1,2,3-oxadiazol-3-ium-5-yl)((3-(trifluoromethyl)phenyl)carbamoyl)amide] | 1000 to 20000 nM |
| O=C([N-]c1c[n+](Cc2ccccc2)no1)Nc1cccc(C(F)(F)F)c1 [Example 6, (3-Benzyl-1,2,3-oxadiazol-3-ium-5-yl)((3-(trifluoromethyl)phenyl)carbamoyl) amide] | 1000 to 20000 nM |
| O=C([N-]c1c[n+](Cc2ccc(-c3cncnc3C3CC3)cc2)no1)Nc1cccc(C(F)(F)F)c1 [Example 91, (3-(4-(4-cyclopropylpyrimidin-5-yl)benzyl)-1,2,3-oxadiazol-3-ium-5-yl)((3-(trifluoromethyl)phenyl)carbamoyl)amide] | 100 to 1000 nM |
| O=C([N-]c1c[n+](Cc2ccc3ccccc3c2)no1)Nc1cccc(C(F)(F)F)c1 [Example 18, (3-(naphthalen-2-ylmethyl)-1,2,3-oxadiazol-3-ium-5-yl)((3-(trifluoromethyl)phenyl)carbamoyl)amide] | 1000 to 20000 nM |
| Cc1nc(OCCN(C)C)ncc1-c1ccc(C[n+]2cc([N-]C(=O)Nc3cccc(C(F)(F)F)c3)on2)nc1 [Example 43, (3-((5-(2-(2-(dimethylamino)ethoxy)-4-methylpyrimidin-5-yl)pyridin-2-yl)methyl)-1,2,3-oxadiazol-3-ium-5-yl)((3-(trifluoromethyl)phenyl)carbamoyl)amide] | 100 to 1000 nM |
| Cc1ccccc1-c1ccc(C[n+]2cc([N-]C(=O)Nc3cccc(C(F)(F)F)c3)on2)cc1 [Example 21, (3-((2′-methyl-[1,1′-biphenyl]-4-yl)methyl)-1,2,3-oxadiazol-3-ium-5-yl)((3-(trifluoromethyl)phenyl)carbamoyl)amide] | 100 to 1000 nM |
| Cc1noc(C)c1-c1ccc(C[n+]2cc([N-]C(=O)Nc3nccc(C(F)(F)F)n3)on2)nc1 [Example 171, (3-((5-(3,5-dimethylisoxazol-4-yl)pyridin-2-yl)methyl)-1,2,3-oxadiazol-3-ium-5-yl)((4-(trifluoromethyl)pyrimidin-2-yl)carbamoyl)amide] | 1000 to 20000 nM |
| Cc1nccnc1-c1ccc(C[n+]2cc([N-]C(=O)Nc3cccc(C(F)(F)F)c3)on2)cc1 [Example 86, (3-(4-(3-methylpyrazin-2-yl)benzyl)-1,2,3-oxadiazol-3-ium-5-yl)((3-(trifluoromethyl)phenyl)carbamoyl)amide] | 100 to 1000 nM |
| CC(=O)NC[C@@H](Cc1ccc(-c2ccccc2)cc1)[n+]1cc([N-]C(=O)Nc2cccc(C(F)(F)F)c2)on1 [Example 71, (R)-(3-(1-([1,1′-biphenyl]-4-yl)-3-acetamidopropan-2-yl)-1,2,3-oxadiazol-3-ium-5-yl)((3-(trifluoromethyl)phenyl)carbamoyl)amide] | > 20000 nM |
| NC[C@@H](Cc1ccccc1)[n+]1cc([N-]C(=O)Nc2cccc(C(F)(F)F)c2)on1 [Example 49, (R)-(3-(1-amino-3-phenylpropan-2-yl)-1,2,3-oxadiazol-3-ium-5-yl)((3-(trifluoromethyl)phenyl)carbamoyl)amide formate] | > 20000 nM |
| Cc1c(-c2ccc(C[n+]3cc([N-]C(=O)Nc4cccc(C(F)(F)F)c4)on3)cc2)cnn1C [Example 95, (3-(4-(1,5-dimethyl-1H-pyrazol-4-yl)benzyl)-1,2,3-oxadiazol-3-ium-5-yl)((3-(trifluoromethyl)phenyl)carbamoyl)amide] | 100 to 1000 nM |
| Cc1noc(C)c1-c1ccc(C[n+]2cc([N-]C(=O)Nc3cccc(C(F)(F)F)c3)on2)cc1 [Example 78, (3-(4-(3,5-dimethylisoxazol-4-yl)benzyl)-1,2,3-oxadiazol-3-ium-5-yl)((3-(trifluoromethyl)phenyl)carbamoyl)amide] | < 100 nM |
| COc1cc(NC(=O)[N-]c2c[n+](C(C)Cc3ccccc3)no2)cc(C(F)(F)F)c1 (stereo not drawn) [Example 34, ((3-methoxy-5-(trifluoromethyl)phenyl)carbamoyl)(3-(1-phenylpropan-2-yl)-1,2,3-oxadiazol-3-ium-5-yl)amide] | > 20000 nM |
| Cc1noc(C)c1-c1ncc(C[n+]2cc([N-]C(=O)Nc3cccc(C(F)(F)F)c3)on2)cn1 [Example 174, (3-((2-(3,5-dimethylisoxazol-4-yl)pyrimidin-5-yl)methyl)-1,2,3-oxadiazol-3-ium-5-yl)((3-(trifluoromethyl)phenyl)carbamoyl)amide] | 100 to 1000 nM |
| Cc1noc(C)c1-c1ccc(C[n+]2cc([N-]C(=O)Nc3cccc(C(F)(F)F)c3)on2)cn1 [Example 104, (3-((6-(3,5-dimethylisoxazol-4-yl)pyridin-3-yl)methyl)-1,2,3-oxadiazol-3-ium-5-yl)((3-(trifluoromethyl)phenyl)carbamoyl)amide] | < 100 nM |
| NC[C@@H](c1ccc(-c2cncnc2)cc1)[n+]1cc([N-]C(=O)Nc2cccc(C(F)(F)F)c2)on1 [Example 102, (R)-(3-(2-amino-1-(4-(pyrimidin-5-yl)phenyl)ethyl)-1,2,3-oxadiazol-3-ium-5-yl)((3-(trifluoromethyl)phenyl)carbamoyl)amide formate] | 100 to 1000 nM |
| Cc1cnncc1-c1ccc(C[n+]2cc([N-]C(=O)Nc3cccc(C(F)(F)F)c3)on2)cc1 [Example 93, (3-(4-(5-methylpyridazin-4-yl)benzyl)-1,2,3-oxadiazol-3-ium-5-yl)((3-(trifluoromethyl)phenyl)carbamoyl)amide] | < 100 nM |
| C=C(c1ccccc1)[n+]1cc([N-]C(=O)Nc2cccc(C(F)(F)F)c2)on1 [Example 35, (3-(1-Phenylvinyl)-1,2,3-oxadiazol-3-ium-5-yl)((3-(trifluoromethyl)phenyl)carbamoyl)amide] | 1000 to 20000 nM |
| CC(=O)NC[C@H](Cc1ccc(-c2ccccc2)cc1)[n+]1cc([N-]C(=O)Nc2cccc(C(F)(F)F)c2)on1 [Example 70, (S)-(3-(1-(1,1′-biphenyl-4-yl)-3-acetamidopropan-2-yl)-1,2,3-oxadiazol-3-ium-5-yl)((3-(trifluoromethyl)phenyl)carbamoyl)amide] | > 20000 nM |
| O=C([N-]c1c[n+]([C@@H](CO)c2ccccc2)no1)Nc1cccc(C(F)(F)F)c1 [Example 30, (R)-(3-(2-hydroxy-1-phenylethyl)-1,2,3-oxadiazol-3-ium-5-yl)((3-(trifluoromethyl)phenyl)carbamoyl)amide] | 1000 to 20000 nM |
| COc1ncc(-c2ccc(C[n+]3cc([N-]C(=O)Nc4cccc(C(F)(F)F)c4)on3)cc2)c(C)n1 [Example 90, (3-(4-(2-Methoxy-4-methylpyrimidin-5-yl)benzyl)-1,2,3-oxadiazol-3-ium-5-yl)((3-(trifluoromethyl)phenyl)carbamoyl)amide] | < 100 nM |
